Results reported in BindingDB's records for patent US12258317 (Sunshine Lake Pharma Co., 2025).

Key:
[1] = biological target: T1, Amine oxidase [copper-containing] 3 (Homo sapiens, UniProt Q16853); experiment: Inhibitory Activity of Human Recombinant SSAO/VAP-1
T1 sequence (Q16853 whole entry): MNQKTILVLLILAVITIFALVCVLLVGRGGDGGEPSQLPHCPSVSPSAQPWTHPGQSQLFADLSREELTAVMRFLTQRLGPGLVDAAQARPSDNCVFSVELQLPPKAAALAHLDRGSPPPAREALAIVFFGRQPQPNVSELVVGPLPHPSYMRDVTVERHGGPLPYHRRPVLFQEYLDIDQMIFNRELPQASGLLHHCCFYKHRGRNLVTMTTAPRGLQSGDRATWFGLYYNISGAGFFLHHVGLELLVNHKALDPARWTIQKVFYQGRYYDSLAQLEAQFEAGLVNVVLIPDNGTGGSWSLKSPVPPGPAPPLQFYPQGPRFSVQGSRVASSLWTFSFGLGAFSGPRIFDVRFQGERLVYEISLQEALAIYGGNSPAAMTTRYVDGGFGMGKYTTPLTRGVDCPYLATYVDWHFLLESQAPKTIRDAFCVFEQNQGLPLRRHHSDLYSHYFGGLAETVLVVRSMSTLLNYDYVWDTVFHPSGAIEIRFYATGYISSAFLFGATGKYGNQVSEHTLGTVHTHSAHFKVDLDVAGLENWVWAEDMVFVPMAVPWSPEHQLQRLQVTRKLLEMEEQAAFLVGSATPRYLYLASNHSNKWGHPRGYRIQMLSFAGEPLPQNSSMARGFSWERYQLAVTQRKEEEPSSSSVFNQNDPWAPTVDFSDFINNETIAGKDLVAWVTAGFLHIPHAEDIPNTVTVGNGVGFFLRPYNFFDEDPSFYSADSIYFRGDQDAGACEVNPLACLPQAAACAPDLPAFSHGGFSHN
Excerpt: Test purpose: The following method is used to determine the inhibitory activity of the compounds in the examples of the present invention on human recombinant SSAO/VAP-1.Test Materials:Human recombinant SSAO/VAP-1 (VAP-1, human) was purchased from Sigma, Cat. No. SRP6241;Amplex Red Monoamine Oxidase Assay Kit was purchased from Invitrogen, Cat. No. A12214;384-well plate was purchased from Corning, Cat. No. 6005174;Amplex Red Hydrogen PeroxidePeroxidase Assay Kit was purchased from Invitrogen, Cat. No. A22188.Benzylamine hydrochloride was purchased from Sigma, Cat. No. B5136-25G;DMSO (Dimethyl Sulfoxide) was purchased from Sigma, Cat. No. D2650-100ML;Test Method:The test compound was dissolved in DMSO and diluted 4 times to a total of 10 concentrations. In a 384-well plate, 25 μL of human recombinant SSAO/VAP-1 (1.6 μg/mL) was added into each well. 100 nL of test compounds at different concentrations were added to each well containing human recombinant SSAO/VAP-1, and the plate was incubated at room temperature for 30 min. […] After 60 min, PerkinElmer's Envision was used to read the fluorescence value (RFU) under excitation at 530-560 nm and emission at 590 nm.

[2] = biological target: T2, Diamine oxidase [copper-containing] (Homo sapiens, UniProt P19801); experiment: Inhibition of DAO (Diamine Oxidase)
T2 construct: gene AOC1
Description: Test purpose: The following method is used to determine the selective inhibitory activity of the compound of the present invention on DAO.Test Materials:Human recombinant DAO (Recombinant Human ABP-1/DAO) was purchased from R&D, Cat. No. 8298-AO;Amplex Red Hydrogen PeroxidePeroxidase Assay Kit was purchased from Invitrogen, Cat. No. A22188;1,4-Diaminobutane dihydrochloride was purchased from Aladdin, Cat. No. D106194-25G.Test Method:The test compound was dissolved in DMSO and diluted 5 times to a total of 6 concentrations. In a 384-well plate, 24 μL of human recombinant DAO (1 μg/mL) was added into each well. 1 μL of test compounds at different concentrations were added to each well containing human recombinant DAO, and the plate was incubated at 37° C. for 30 min. After incubating for 30 min, 25 μL of Amplex Red Hydrogen Peroxide Peroxidase Assay Kit (containing 100 μM Amplex Red and 0.2 U/ml HRP) containing 1 M 1,4-butanediamine dihydrochloride was added into the corresponding wells, and the plate was incubated in the dark at 37° C. for 30 min. After 30 min, PHERAstar FSX microplate reader of BMG LABTECH was used to read the fluorescence value (RFU) under excitation at 540 nm and emission at 580 nm.

T2 sequence (P19801 20-751 limits assumed): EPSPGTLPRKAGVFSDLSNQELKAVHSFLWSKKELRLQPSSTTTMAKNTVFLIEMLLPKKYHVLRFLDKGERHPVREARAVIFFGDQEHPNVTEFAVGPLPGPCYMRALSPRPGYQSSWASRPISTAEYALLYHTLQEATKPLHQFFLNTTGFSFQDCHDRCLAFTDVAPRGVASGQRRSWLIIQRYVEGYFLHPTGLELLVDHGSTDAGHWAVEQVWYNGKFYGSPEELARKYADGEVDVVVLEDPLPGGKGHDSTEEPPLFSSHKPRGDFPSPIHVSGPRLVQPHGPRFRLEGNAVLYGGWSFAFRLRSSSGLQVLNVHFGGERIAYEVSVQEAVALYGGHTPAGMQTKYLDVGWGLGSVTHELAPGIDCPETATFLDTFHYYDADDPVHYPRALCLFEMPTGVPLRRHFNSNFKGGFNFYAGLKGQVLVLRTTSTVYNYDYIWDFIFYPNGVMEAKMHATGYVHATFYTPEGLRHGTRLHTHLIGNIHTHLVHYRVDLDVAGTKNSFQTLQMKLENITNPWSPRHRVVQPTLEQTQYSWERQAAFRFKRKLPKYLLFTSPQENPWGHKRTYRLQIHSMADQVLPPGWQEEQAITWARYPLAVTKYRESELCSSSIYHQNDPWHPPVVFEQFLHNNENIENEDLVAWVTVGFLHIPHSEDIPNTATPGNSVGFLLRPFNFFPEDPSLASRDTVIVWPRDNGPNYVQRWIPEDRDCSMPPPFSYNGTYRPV

IC50 [1] | IC50 [2] | Compound
6.29 nM | > 1000 nM | NC/C(=C\F)COc1ccc2c(c1)CCN(CC(N)=O)C2=O [US12258317, Example 1]
2.2 nM | – | NC/C(=C/F)COc1ccc2c(c1)CCN(CC(N)=O)C2=O [US12258317, Example 2]
